Literature values, collected in patent publication US20190105332A1, “METHODS OF TREATING PROSTATE CANCER” (Janssen Oncology, Inc., priority 2017, published 2019).
Where two headings read alike, the source gives them in different places.

Key:
CYP2D6 = molecular target: T1, CYP2D6 (Homo sapiens, UniProt P10635)
T1 construct: from tissue; host or cells: in vivo, trial participants (endogenous hepatic enzyme)

CYP1A2 = molecular target: T2, CYP1A2 (Homo sapiens, UniProt P05177); details: abiraterone acetate 1,000 mg daily plus prednisone 5 mg twice daily; single 100 mg theophylline
T2 sequence (P05177 1-516): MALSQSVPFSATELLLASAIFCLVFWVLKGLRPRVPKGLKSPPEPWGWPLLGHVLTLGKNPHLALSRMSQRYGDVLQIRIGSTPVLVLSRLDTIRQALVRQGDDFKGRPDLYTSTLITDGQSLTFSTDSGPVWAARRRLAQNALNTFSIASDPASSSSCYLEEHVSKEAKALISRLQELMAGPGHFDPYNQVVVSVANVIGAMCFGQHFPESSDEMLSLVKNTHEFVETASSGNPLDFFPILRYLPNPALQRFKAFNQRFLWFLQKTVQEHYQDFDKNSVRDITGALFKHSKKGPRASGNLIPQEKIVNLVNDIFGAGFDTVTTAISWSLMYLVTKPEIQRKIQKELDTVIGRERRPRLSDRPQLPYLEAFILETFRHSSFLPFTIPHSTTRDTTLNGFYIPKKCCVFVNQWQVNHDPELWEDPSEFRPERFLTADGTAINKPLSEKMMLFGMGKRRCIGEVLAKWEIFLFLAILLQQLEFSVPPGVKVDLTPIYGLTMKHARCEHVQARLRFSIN

P-glycoprotein (P-gp) = P-glycoprotein (P-gp) (Homo sapiens, UniProt P08183); details: in vitro
P-glycoprotein (P-gp), sequence (P08183 whole entry): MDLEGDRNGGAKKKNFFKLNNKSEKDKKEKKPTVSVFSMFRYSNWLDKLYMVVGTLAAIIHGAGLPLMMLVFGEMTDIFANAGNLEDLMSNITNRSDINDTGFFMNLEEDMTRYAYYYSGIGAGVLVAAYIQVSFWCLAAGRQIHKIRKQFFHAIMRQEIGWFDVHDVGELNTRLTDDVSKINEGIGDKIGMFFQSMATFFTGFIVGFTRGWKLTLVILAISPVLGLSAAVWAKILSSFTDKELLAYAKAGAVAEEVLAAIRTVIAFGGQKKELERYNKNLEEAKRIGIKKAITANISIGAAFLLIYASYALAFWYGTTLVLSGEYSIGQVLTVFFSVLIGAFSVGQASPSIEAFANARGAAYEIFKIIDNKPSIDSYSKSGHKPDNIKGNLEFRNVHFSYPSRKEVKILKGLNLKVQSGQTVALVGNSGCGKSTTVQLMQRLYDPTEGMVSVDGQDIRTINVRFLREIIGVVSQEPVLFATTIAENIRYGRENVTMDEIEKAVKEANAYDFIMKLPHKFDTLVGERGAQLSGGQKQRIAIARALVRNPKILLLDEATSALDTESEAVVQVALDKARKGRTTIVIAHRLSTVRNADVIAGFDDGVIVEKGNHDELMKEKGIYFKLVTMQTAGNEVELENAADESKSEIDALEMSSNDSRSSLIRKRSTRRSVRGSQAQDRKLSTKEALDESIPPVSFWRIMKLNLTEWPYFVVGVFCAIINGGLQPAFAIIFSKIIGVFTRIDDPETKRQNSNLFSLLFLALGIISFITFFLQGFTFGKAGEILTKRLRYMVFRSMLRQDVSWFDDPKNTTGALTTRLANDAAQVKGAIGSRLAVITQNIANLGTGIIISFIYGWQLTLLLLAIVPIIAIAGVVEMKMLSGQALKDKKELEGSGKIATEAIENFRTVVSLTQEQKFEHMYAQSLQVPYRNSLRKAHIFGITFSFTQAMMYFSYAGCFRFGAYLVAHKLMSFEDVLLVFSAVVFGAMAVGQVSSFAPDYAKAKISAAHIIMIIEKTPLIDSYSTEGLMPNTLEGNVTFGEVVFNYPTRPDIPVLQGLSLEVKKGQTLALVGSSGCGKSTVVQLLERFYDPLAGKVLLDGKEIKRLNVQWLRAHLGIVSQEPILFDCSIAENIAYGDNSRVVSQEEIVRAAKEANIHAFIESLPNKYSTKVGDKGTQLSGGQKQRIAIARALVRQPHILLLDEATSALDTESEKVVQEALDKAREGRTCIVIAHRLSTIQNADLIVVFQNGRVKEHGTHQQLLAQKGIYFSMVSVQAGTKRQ

[1] = not given; remark: listed apart in the source
[2] = 6-month study
[3] = test system: primary human lymphocytes
[4] = rat micronucleus assay
[5] = not given; remark: listed apart in the source
[6] = not given; remark: listed apart in the source
[7] = not given; remark: listed apart in the source
[8] = not given; remark: listed apart in the source
[9] = not given; remark: listed apart in the source
[10] = not given; remark: listed apart in the source
CYP2C8 = molecular target: T3, CYP2C8 (Homo sapiens, UniProt P10632); set-up: from tissue; host or cells: in vivo, healthy human subjects (endogenous enzyme); details: healthy subjects; single dose of 1,000 mg abiraterone acetate
T3 sequence (P10632 1-490): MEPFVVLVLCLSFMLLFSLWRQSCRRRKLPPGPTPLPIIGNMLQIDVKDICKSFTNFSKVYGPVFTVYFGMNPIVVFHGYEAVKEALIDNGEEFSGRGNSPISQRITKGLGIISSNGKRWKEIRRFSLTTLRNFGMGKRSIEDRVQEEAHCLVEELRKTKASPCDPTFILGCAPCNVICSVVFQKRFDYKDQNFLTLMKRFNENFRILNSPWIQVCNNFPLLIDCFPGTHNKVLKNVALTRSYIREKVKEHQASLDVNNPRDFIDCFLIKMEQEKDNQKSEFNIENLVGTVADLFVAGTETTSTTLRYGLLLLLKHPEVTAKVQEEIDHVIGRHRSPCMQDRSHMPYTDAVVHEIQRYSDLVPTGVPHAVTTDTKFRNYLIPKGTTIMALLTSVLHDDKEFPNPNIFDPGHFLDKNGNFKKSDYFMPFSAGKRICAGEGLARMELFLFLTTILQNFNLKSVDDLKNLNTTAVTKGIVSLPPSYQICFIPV

[11] = abiraterone acetate 1,000 mg daily and prednisone 5 mg twice daily
[12] = oral, 2 weeks until day 7 of pregnancy

T1 sequence (P10635 whole entry): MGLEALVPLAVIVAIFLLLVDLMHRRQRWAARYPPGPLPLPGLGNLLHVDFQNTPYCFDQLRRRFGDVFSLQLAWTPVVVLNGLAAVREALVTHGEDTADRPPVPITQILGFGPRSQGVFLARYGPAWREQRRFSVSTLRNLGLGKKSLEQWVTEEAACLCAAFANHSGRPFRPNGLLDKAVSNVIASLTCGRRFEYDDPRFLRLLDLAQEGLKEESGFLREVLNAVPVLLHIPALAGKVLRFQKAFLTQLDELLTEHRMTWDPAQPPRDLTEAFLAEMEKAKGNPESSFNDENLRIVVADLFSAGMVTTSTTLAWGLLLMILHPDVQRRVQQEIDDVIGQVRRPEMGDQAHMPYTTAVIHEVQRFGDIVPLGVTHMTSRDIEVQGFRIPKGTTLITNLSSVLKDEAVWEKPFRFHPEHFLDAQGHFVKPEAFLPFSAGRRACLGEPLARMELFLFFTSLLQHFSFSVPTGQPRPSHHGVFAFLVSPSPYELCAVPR

Structure (SMILES): CC(=O)O[C@H]1CC[C@@]2(C)C(=CC[C@@H]3[C@@H]2CC[C@]2(C)C(c4cccnc4)=CC[C@@H]32)C1 [abiraterone acetate, (3β)-17-(3-pyridinyl) androsta-5,16-dien-3-yl acetate]
- increase in AUC of dextromethorphan (CYP2D6 substrate) (CYP2D6; [11]): 2.9 fold
- increase in Cmax of dextromethorphan (CYP2D6 substrate) (CYP2D6; [11]): 2.8 fold
- increase in AUC for dextrorphan (CYP2D6; abiraterone acetate 1,000 mg daily plus prednisone 5 mg twice daily): approximately 1.3 fold
- systemic exposure of theophylline (CYP1A2 substrate) (CYP1A2): no increase
- inhibition of P-gp (P-glycoprotein (P-gp)): inhibitor
- substrate of P-glycoprotein (P-gp) (P-glycoprotein (P-gp); clinically relevant concentrations): not substrates
- octanol-water partition coefficient (Log P): 5.12
- pKa of the aromatic nitrogen: 5.19
- solubility in water: practically insoluble
- carcinogenicity in female rats ([1]; exposure levels up to 0.8 times the human clinical exposure based on AUC): not carcinogenic
- carcinogenicity in male rats ([1]; oral 5, 15, and 50 mg/kg/day): increased the combined incidence of interstitial, cell adenomas and carcinomas in the testes at all dose levels tested
- carcinogenicity [2]: not carcinogenic
- clastogenicity in vitro [3]: not mutagenic in an in vitro microbial mutagenesis (Ames) assay or clastogenic
- clastogenicity in vivo [4]: not mutagenic in an in vitro microbial mutagenesis (Ames) assay or clastogenic
- exposure at which a reduction in circulating testosterone levels occurred ([5]; 13- and 26-week studies): approximately one half the human clinical exposure
- doses with dose-dependent increase in cataracts ([5]; daily oral, 26 weeks, similar to the human clinical exposure based on AUC): ≥ 50 mg/kg/day
- doses with atrophy, aspermia/hypospermia, and hyperplasia in the reproductive system ([5]; male rats, 13- and 26-weeks): ≥ 50 mg/kg/day
- exposure at which a reduction in circulating testosterone levels occurred ([6]; 13- and 39-week studies): approximately one half the human clinical exposure
- cataracts ([6]; 39-week, daily oral, 2 times greater than the clinical exposure based on AUC): no cataracts were observed
- doses with atrophy, aspermia/hypospermia, and hyperplasia in the reproductive system ([6]; 39-weeks): ≥ 250 mg/kg/day
- 30 mg/kg/day in rats relative to the recommended dose of 1,000 mg/day ([7]; based on body surface area): approximately 0.3 times
- doses with reduced reproductive organ weights, sperm counts, sperm motility, altered sperm morphology and decreased fertility ([7]; dosed orally for 4 weeks): ≥ 30 mg/kg/day
- time after last administration at which effects on male rats were reversible ([7]; rat, in vivo): 16 weeks
- dose with pre-implantation loss [8, 12]: 300 mg/kg/day
- doses with increased incidence of irregular or extended estrous cycles [8, 12]: ≥ 30 mg/kg/day
- mating, fertility, and litter parameters ([8]; rat, in vivo): no differences
- time after last administration at which effects on female rats were reversible ([8]; rat, in vivo): 4 weeks
- conversion to abiraterone ([9]; likely through esterase activity): not CYP mediated
- compound present in feces, share of the administered dose ([9]; oral 14C-abiraterone acetate): approximately 55%
- radioactive dose recovered in feces ([9]; oral administration): approximately 88%
- radioactive dose recovered in urine ([9]; oral administration): approximately 5%
- systemic exposure (AUC) relative to the AUC in patients ([10]; 100 mg/kg/day): ~0.3 times
- dose with decreased fetal body weight ([10]; oral, gestational days 6-17): 100 mg/kg/day
- doses that caused maternal toxicity ([10]; oral, gestational days 6-17): ≥ 10 mg/kg/day
- doses with decreased fetal ano-genital distance ([10]; oral, gestational days 6-17): ≥ 30 mg/kg/day
- doses with embryo-fetal lethality, fetal developmental delay and urogenital effects ([10]; rat, in vivo, po): ≥ 10 mg/kg/day
- increase in AUC of pioglitazone (CYP2C8 substrate) (CYP2C8): 46%
